Four compounds from US20250163365A1, “LACTOBACILLUS REUTERI JH53 STRAIN HAVING EXCELLENT ORGANIC ACID RESISTANCE AND CONVERSION OF 1,3-PROPANDIOL FROM GLYCEROL, AND USE THEREOF” (ACTIVON CO., LTD., priority 2021, published 2025) can be followed below.

Molecules are shown by their SMILES. ≈ marks a conversion by molar mass, not a printed value. Read-outs that look alike come from different tables or passages of the source.

For one experiment, the system named is L. reuteri CH53. Nature of the experiment: IC50 for organic acids, parent strain (Example 3). Type of experiment: cell-based, Lactobacillus reuteri. The following applies: Limosilactobacillus reuteri. How it is done: (§1) In order to confirm that the Lactobacillus reuteri JH53 strain of the present invention has enhanced organic acid resistance, the half-maximal inhibitory concentrations (IC50) for organic acids were measured. […] Thereafter, 1% (v/v) of each strain culture with OD600 nm=8.0 was inoculated into each broth and statically cultured at 37° C. for 24 hours, and the concentration at which the absorbance (OD600 nm) was half of the control was measured.

For the next experiment, the system named is L. reuteri JH53. Description: IC50 for organic acids, mutant strain (Example 3). Type of experiment: cell-based, Lactobacillus reuteri. Particulars: Limosilactobacillus reuteri, JH53, 24 h, pH 5.5, read-out: IC50 (g/L) L. reuteri JH53. How it is done:
as §1

The test system of experiment [1] is Lactobacillus reuteri CH53 strain. Nature of the experiment: IC50 of Lactobacillus reuteri CH53 strain for metabolites (Example 1). It counts as cell-based. How it is done:
The half-maximal inhibitory concentrations (IC50) of the Lactobacillus reuteri CH53 strain (KCTC13149BP) for major metabolites were measured. […] Thereafter, 1% (v/v) of the strain culture with OD600 nm=8.0 was inoculated into each broth and statically cultured at 37° C. for 24 hours, and the concentration at which the absorbance (OD600 nm) was half of the control was measured.

For experiment [2] the test system is unchanged. The following applies: lactic acid and acetic acid mixed in MRS plate medium, anaerobic, 37° C., 24 hours.
Experiment [3] shares this test system. Nature of the experiment: Fed-batch culture of CH53 in medium supplemented with organic acid. Type of experiment: cell-based. The following applies: 10 g/L organic acid added, pH 5.5, fed-batch, 37° C., 100 rpm. Here is the method:
Cell growth and 1,3-propanediol production were measured while the Lactobacillus reuteri CH53 strain was fed-batch cultured in a medium supplemented with an organic acid. 3 L of MRS broth containing 20 g/L of glycerol, 10 g/L of proteose peptone NO. […] During culture, glucose and glycerol were continuously fed so that they could be maintained at residual concentrations of 5 to 10 g/L. Thereafter, 1% (v/v) of the strain culture with OD600 nm=8.0 was inoculated into each broth, and the absorbance (OD600 nm) was measured while fed-batch culture was carried out under conditions of 37° C. and 100 rpm. 1 mL of each culture was centrifuged at 13,000 rpm for 5 minutes, and then the supernatant was filtered through a 0.22-μm filter and the concentration of 1,3-propanediol was measured using high-performance liquid chromatography. 1,3-Propanediol production was analyzed by high-performance liquid chromatography equipped with an ion exchange column ([…], Aminex HPX-87H, Bio-Rad) and a differential refraction detector (RID) using 0.25 mM H2SO4 as a mobile phase at a flow rate of 0.6 ml/min.

[4] abbreviates: Limosilactobacillus reuteri, CH53STRAIN, CH53 strain, MRS broth pH 5.5, static culture 37° C. 24 hours, concentration at which OD600 nm was half of control, read-out: IC50.

As for `CC(=O)O` [Acetic acid], the IC50 in the experiment on L. reuteri CH53 (CH53, 24 h, pH 5.5, read-out: IC50 (g/L) L. reuteri CH53) was 20.6 g/L (≈ 343 mM); in the experiment with L. reuteri JH53, 25.6 g/L (≈ 426 mM); in experiment [1] (Limosilactobacillus reuteri, CH53STRAIN, 24 h, pH 5.5), 17.4 mg/mL. In addition, the “Concentration at which CH53 strain could not grow” value in experiment [2] is ≥ 17.5 g/L. Moreover, the “Effect on 1,3-propanediol production of CH53 strain” value in experiment [3] is reported as “reduced 1,3-propanediol production”. The “Effect on cell growth of CH53 strain” value in experiment [3] is given as “did not affect cell growth”.
For `OCCCO` [1,3-propanediol], the “IC50” value in experiment [1] (CH53 strain, MRS broth pH 5.5, static culture 37° C. 24 hours, concentration at which OD600 nm was half of control) was 79.8 mg/mL.
Turning to `CC(O)C(=O)O` (centres unmarked) [Lactic acid], the IC50 in the experiment on L. reuteri CH53 (CH53, MRS broth pH 5.5, static culture 37° C. 24 hours, OD600 nm half of control, read-out: IC50 (g/L) L. reuteri CH53) turned out to be 31.9 g/L (≈ 354 mM); in the experiment on L. reuteri JH53 it was 36.7 g/L (≈ 407 mM); in experiment [1] (setting [4]), 27.9 mg/mL. Also, in experiment [2], the “Concentration at which CH53 strain could not grow” value is on record as ≥ 35.0 g/L. The “Effect on 1,3-propanediol production of CH53 strain” value in experiment [3] is listed as “reduced 1,3-propanediol production”. Besides, the “Effect on cell growth of CH53 strain” value in experiment [3] is “did not affect cell growth”.
`CCO` [Ethanol]: in experiment [1] (setting [4]), the IC50 was 29.5 mg/mL.
